Columns and labels:
[1] = system: E. faecalis; assay: Broth microdilution MIC (Example 11); conditions: Enterococcus faecalis, VRE, VRE Lev^R Cip^R Ery^R
[2] = system: Pseudomonas aeruginosa; assay: Broth microdilution MIC (Example 11); conditions: Pseudomonas aeruginosa
[3] = system: Escherichia coli; conditions: E. coli MMX 102 (ATCC 25922); CLSI QC ranges shown in parenthesis; cited from earlier work
[4] = system: Klebsiella pneumoniae; assay: Broth microdilution MIC (Example 11)
[5] = system: Acinetobacter baumannii; assay: Broth microdilution MIC (Example 11); conditions: Acinetobacter baumannii
[6] = system: Pseudomonas aeruginosa; conditions: P. aeruginosa MMX 103 (ATCC 27853); CLSI QC ranges shown in parenthesis; cited from earlier work
[7] = system: Escherichia coli; assay: Broth microdilution MIC (Example 11)
[8] = system: Enterobacter cloacae; assay: Broth microdilution MIC (Example 11); conditions: ATCCBAA2468
[9] = system: Staphylococcus aureus (MRSA); assay: Broth microdilution MIC (Example 11)
[10] = system: Haemophilus influenzae; assay: Broth microdilution MIC against Haemophilus influenzae clinical isolates; conditions: Haemophilus influenzae
[11] = system: vancomycin-intermediate Staphylococcus aureus (VISA); assay: Broth microdilution MIC (Example 12); conditions: Staphylococcus aureus, NRS13 / VISA, read-out: MIC values
[12] = system: S. agalactiae; assay: Broth microdilution MIC (Example 11); conditions: Streptococcus agalactiae
[13] = system: S. pneumoniae; assay: Broth microdilution MIC (Example 11); conditions: Streptococcus pneumoniae
[14] = system: S. pyogenes; assay: Broth microdilution MIC (Example 11); conditions: Streptococcus pyogenes
[15] = ATCC27853, P. aeruginosa MMX 103 (ATCC 27853), QC
[16] = P. aeruginosa MMX 1381, MDR, Lev^R, Cip^R, MEM^R, CAZ^R
[17] = P. aeruginosa MMX 2562, MDR, Lev^R, Cip^R, MEM^R, CAZ^R
[18] = P. aeruginosa MMX 3991, MDR, Lev^R, Cip^R, MEM^R, CAZ^R
[19] = P. aeruginosa MMX 4654, IMP-7, Lev^R, Cip^R, MEM^R, CAZ^R
[20] = P. aeruginosa MMX 4697, VIM-2, Lev^R, Cip^R, MEM^R, CAZ^R
[21] = K. pneumoniae MMX 4622, KPC-2, MEM^R, CAZ^R
[22] = K. pneumoniae MMX 4623, KPC-2, MEM^R, CAZ^R, GM^R
[23] = K. pneumoniae MMX 4653, KPC-3, Lev^R, MEM^R, CAZ^R
[24] = K. pneumoniae MMX 4683, KPC-2, Lev^R, MEM^R, CAZ^R
[25] = K. pneumoniae MMX 4684, ESBL, MEM^R
[26] = K. pneumoniae MMX 4685, ESBL, Lev^R, MEM^R, CAZ^R
[27] = K. pneumoniae MMX 4694, KPC-3, Lev^R, MEM^R, CAZ^R
[28] = K. pneumoniae MMX 5979, NDM-1, Lev^R, MEM^R, CAZ^R, Gm^R
[29] = A. baumannii MMX 2592, MDR, Lev^R, Cip^R, MEM^R, CAZ^R, Gm^R
[30] = A. baumannii MMX 2593, MDR, Lev^R, Cip^R, MEM^R, CAZ^R, Gm^R
[31] = A. baumannii MMX 3372, MDR, Cip^R, MEM^I, CAZ^I
[32] = A. baumannii MMX 3373, Sensitive
[33] = NCTC13304, A. baumannii MMX 4651 (NCTC 13304), MDR, OXA-27, Lev^R, Cip^R, MEM^R, CAZ^R, Gm^I
[34] = ATCC25922, E. coli MMX 102 (ATCC 25922), QC
[35] = ATCCBAA2469, E. coli MMX 5980 (ATCC BAA-2469), NDM-1, Lev^R, MEM^R, CAZ^R, Gm^R
[36] = E. coli MMX 8423, ESBL, Lev^R, CAZ^R, Gm^R
[37] = E. coli MMX 8425, ESBL, Lev^R, CAZ^R, Gm^R
[38] = ATCC29213|MRSA|MSSA, S. aureus MMX 101 (ATCC 29213), QC, MSSA
[39] = MRSA, S. aureus MMX 5373, MRSA Lev^R Cip^R CC^R Ery^R Ox^R
[40] = MRSA, S. aureus MMX 6311, MRSA Lev^R Cip^R CC^R Ery^R Ox^R
[41] = MRSA, S. aureus MMX 9203, MRSA Lev^R Cip^R Ery^R Ox^R
[42] = MRSA, S. aureus MMX 9204, MRSA Lev^R Cip^R Ery^R Ox^R
[43] = MRSA, S. aureus MMX 9205, MRSA Lev^R Cip^R CC^R Ery^R Ox^R

CC(C)(O/N=C(\C(=O)N[C@@H]1C(=O)N2C(C(=O)[O-])=C(C[n+]3ccccc3)CS[C@H]12)c1csc(N)n1)C(=O)O [Ceftazidime]
8 µg/mL: MIC [4, 25] | MIC [9, 38]
> 32 µg/mL: MIC ([1]; E. faecalis MMX 8960) | MIC ([1]; E. faecalis MMX 8961) | MIC ([1]; E. faecalis MMX 8962) | MIC [2, 17] | MIC [2, 19] | MIC [4, 21] | MIC [4, 22] | MIC [4, 23] | MIC [4, 24] | MIC [4, 26] | MIC [4, 27] | MIC [4, 28] | MIC [5, 33] | MIC [7, 35] | MIC [8] | MIC [9, 39] | MIC [9, 40] | MIC [9, 41] | MIC [9, 42] | MIC [9, 43]
32 µg/mL: MIC [2, 16] | MIC [2, 20] | MIC [5, 29] | MIC [5, 30] | MIC [7, 36]
(0.06-0.5) μg/mL: CLSI QC range of MIC [3]
(1-4) μg/mL: CLSI QC range of MIC [6]
16 µg/mL: MIC [2, 18] | MIC [5, 31] | MIC ([7]; E. coli MMX 8424, ESBL, CAZ^R) | MIC [7, 37]
0.12 µg/mL: MIC [7, 34]
4 µg/mL: MIC [5, 32]
2 µg/mL: MIC [2, 15]

C[C@H]1COc2c(N3CCN(C)CC3)c(F)cc3c(=O)c(C(=O)O)cn1c23 [Levofloxacin, reference compound]
0.25 µg/mL: MIC ([14]; S. pyogenes MMX 3820, ERY^R CLI^R) | MIC ([14]; S. pyogenes MMX 5091, ERY^R CC^R)
4 µg/mL: MIC [9, 41] | MIC [9, 42]
1 µg/mL: MIC [2, 15] | MIC ([12]; S. agalactiae MMX 3743, ERY^R CC^R) | MIC ([12]; S. agalactiae MMX 4079, ERY^R CC^R Pen^R MEM^R) | MIC [4, 21] | MIC [4, 22] | MIC [5, 31] | MIC ([13]; S. pneumoniae MMX 937, Mem^R SXT^R CC^R Ery^R Pen^R) | MIC ([13]; S. pneumoniae MMX 3959, CC^R Ery^R) | MIC ([13]; S. pneumoniae MMX 5440, Mem^R SXT^R CC^R Ery^R Pen^R) | MIC ([13]; S. pneumoniae MMX 5445, Mem^R SXT^R CC^R Ery^R Pen^R) | MIC ([13]; S. pneumoniae MMX 8133, Mem^R SXT^R CC^R Ery^R Pen^R)
(0.5-4) μg/mL: CLSI QC range of MIC [6]
32 µg/mL: MIC ([1]; E. faecalis MMX 8960) | MIC [2, 20] | MIC [4, 26] | MIC [5, 30] | MIC [9, 39] | MIC [9, 40]
8 µg/mL: MIC [5, 33] | MIC ([13]; S. pneumoniae MMX 880, Lev^R SXT^R CC^R Ery^R Pen^R)
> 64 µg/mL: MIC [4, 24] | MIC [4, 28] | MIC [9, 43]
0.03 µg/mL: MIC [4, 25]
≥ 4 µg/mL: MIC [11]
0.5 µg/mL: MIC ([12]; S. agalactiae MMX 3741, ERY^R CC^R) | MIC ([12]; S. agalactiae MMX 4077, ERY^R CC^R) | MIC ([12]; S. agalactiae MMX 4086, ERY^R CC^R) | MIC ([13]; ATCC49619, S. pneumoniae MMX 6837 (ATCC 49619), QC) | MIC ([14]; S. pyogenes MMX 3068, Ery^R) | MIC ([14]; S. pyogenes MMX 3929, ERY^R CC^R)
(0.008-0.06)^1 μg/mL: CLSI QC range of MIC [3]
64 µg/mL: MIC ([1]; E. faecalis MMX 8961) | MIC ([1]; E. faecalis MMX 8962) | MIC [2, 16] | MIC [2, 17] | MIC [2, 18] | MIC [2, 19] | MIC [4, 23] | MIC [4, 27] | MIC [5, 29] | MIC [8]
0.06 µg/mL: MIC ([7]; E. coli MMX 8424, ESBL, CAZ^R)
16 µg/mL: MIC [7, 35] | MIC [7, 36] | MIC [7, 37]
0.12 µg/mL: MIC [5, 32] | MIC [9, 38] | MIC ([14]; S. pyogenes MMX 3919, ERY^R)
0.015 µg/mL: MIC50 [10] | MIC90 [10] | MIC [7, 34]

Reference: patent US11464749B2, “Bismuth-thiol compositions and methods of use” (Microbion Corporation, priority 2018, dated 2022)
